# Test results as given in PMC5905120, “An innovative immunotherapeutic strategy for ovarian cancer: CLEC10A and glycomimetic peptides” (Journal for Immunotherapy of Cancer, 2018).
# Bridges are numbered along the chain shown (N, C = ends). Roman numbers before positions name the chains, in order. Where no end group is shown, it is not given here.
# What was measured:
# [1] = system: peritoneal cells of Balb/c mice; experiment: Peritoneal immune cell populations by flow cytometry, healthy Balb/c mice; format: in vivo, mouse (Balb/c)
# Description: Healthy C57BL/6 male mice, 10 weeks old, were injected subcutaneously with peptides on alternate days. Peritoneal cells were isolated from mice 24 h after dosing by injecting ice cold PBS (containing 3% FBS) into the peritoneal cavity, gently massaging the abdomen, and then collecting the fluid, which was transferred into K2EDTA-treated tubes for evaluation of specific biomarkers. Cells from three mice in each group were pooled, counted and divided among FACS tubes (1 × 10^6 cells per tube). Cells were washed once in PBS containing 3% FBS, then stained with 0.25 to 1 μg of fluorescently conjugated antibody per 10^6 cells in 100 μL of buffer as recommended by the manufacturer (Table 2).
# Cells were incubated with the antibodies for 30 min at 4 °C in the dark. Following staining, the cells were washed two times with PBS/3% FBS and immediately analyzed with a MACSQuant flow cytometer (Miltenyi Biotech, Inc., San Diego, CA). Compensation was performed using single stain tubes for each color present in the analysis as well as an unstained control sample. Collection of flow cytometric data and analysis with FlowJo software, version 10.0.6 (FlowJo, LLC, Ashland, OR) were performed by Biomodels LLC (Watertown, MA).
# To examine whether increases occurred in mature immune cells, peritoneal cells from Balb/c and C57BL/6 mice were analyzed by flow cytometry after cells were stained with the markers listed in Table 2. […] To explore this observation more extensively, svL4 or sv6D was injected into C57BL/6 mice on day 0, 2 or 4. Peritoneal cells were examined by flow cytometry 24 h after each injection. Shown in Fig. 5 are results expressed as cell counts for F4/80 CD11b CD86 (mature, active macrophages); CD11c (DCs); CD11c CD 86 (activated DCs); CD4 CD69 (activated T cells); CD8 CD69 (activated cytotoxic T cells); NK1.1 CD3^+ CD69 (activated NKT cells); NK1.1 CD3^− CD69 (activated NK cells); CD19 (B cells); and CD19 CD73 CD80 CD273 (memory B cells). The numbers of these mature, activated cells continued to increase with each injection.
# DC-SIGN = experiment: Solid-phase binding to DC-SIGN; set-up: species or system human; details: Fig. 2b
# Description: Solid-phase binding assays were performed with streptavidin-, protein A/G-, or Nickel-coated microtiter plates (Pierce). His-tagged or Fc-fusion recombinant receptors (R&D Systems, Minneapolis, MN) were reconstituted in PBS. Sufficient receptors were added to wells to saturate the coating. His-tagged receptors were added to each well at a 5-fold excess over the stated capacity of the Ni coating to minimize non-specific binding of the peptide. Wells were washed three times with binding buffer (25 mM Tris HCl, pH 7.4, 150 mM NaCl, 0.05% Tween-20) to remove unbound receptor and 50 μL of 2 μM biotinylated peptide in binding buffer were added and allowed to incubate for 1 h. The wells were washed four times with binding buffer and then incubated with 50 μL of 1 μg/mL streptavidin conjugated with peroxidase (Sigma-Aldrich) for 1 h. […] After several minutes to allow color development, the reaction was stopped with 50 μL 1 M H3PO4 and absorbance was measured at 450 nm. Bound streptavidin was quantitated by the specific activity of peroxidase (absorbance/ng protein conjugate/min) under the conditions of the assay.
# Solid-phase binding assays were performed with recombinant human receptors. […] After extensive washing, the bound receptor was measured by peroxidase conjugated to a receptor-specific antibody. […]
# [2] = system: monocytes in the peritoneal cavity of RAG^—/— mice; experiment: Peritoneal monocyte response in RAG^—/— mice; format: in vivo, mouse (RAG^—/—); details: s.c. injection (data not shown)
# Description: To determine whether the target(s) for svL4 is located on lymphocytes, with subsequent cross-talk signaling to achieve activation of monocytes, an experiment was performed in which svL4 was injected into RAG^—/— mice, which lack activity of rag, the recombination activation gene. The ability to perform recombination to generate antigen-specific antibodies by V(D)J recombination is required for B and T cell precursors to produce functional antigen receptors on their surface, and without a functional rag gene these cells undergo apoptosis.
# [3] = system: peritoneal low FSc and low SSc cells; experiment: Peritoneal small-cell population in 4T1 tumor-bearing Balb/c mice; format: in vivo, mouse (Balb/c); details: 1 nmole/g
# Description: After tumors had reached a volume of at least 500 mm^3, the peritoneal population of low FSc and low SSc cells was minimal (Fig. S2a). […] We conclude that this population is possibly progenitor cells and that additional treatments would lead to maturation of this population, as observed with healthy animals.
# Fig. S2. Increase in the population of small cells in the peritoneal cavity of Balb/c mice bearing tumors of breast 4T1 cancer cell line. svL4 (1 nmole/g) was injected on day 0 and day 2, with analysis 24 h after each injection. a) Pseudocolor scatter plots of peritoneal cells from untreated or treated mice on day 3, 24 h after the second injection. […] Untreated animals, blue; treated animals, orange. Peritoneal cells from 3 animals were pooled and analyzed in triplicate. c) Histograms of normalized SSc vs. FSc for samples of peritoneal cells from Balb/c mice on day 3, from Fig. S2b, i.e., 24 h after the second injection of svL4. Blue trace, untreated animals; red trace, svL4-treated animals.
substance,measurement,setting,value
"I: VQATQSNQHTPRGGGSKK-NH2 / II: VQATQSNQHTPRGGGSK / III: VQATQSNQHTPRGGGS / IV: VQATQSNQHTPRGGGS (amide I:17-IV:C, I:18-II:C, II:17-III:C) [svL4]","increases in macrophages, DCs, T cells and NK cells","[1]; 1 nmole/g s.c., 24 h after a single injection",Several-fold increases
same,CD90.2^+ fraction of small cells,[1]; after treatment with svL4,about 15%
same,increase in mature immune cells,[1]; within 24 h after a single injection (data not shown),approximately 2 fold
same,"small cells (low FSc, low SSc)","[1]; within 24 h after injection, healthy Balb/c, Fig. S1b",decreased to a minimal level
same,binding to DC-SIGN,DC-SIGN,did not bind significantly
same,response of peritoneal monocytes vs. C57BL/6,[2],essentially the same as that in C57BL/6 mice
same,size of small-cell population,[3]; 24 h after first injection,not changed significantly
same,CD3^+ fraction of small cells,[3]; after second injection,0.5%
same,CD19^+ fraction of small cells,[3]; after second injection,about 3%
same,size of small-cell population,[3]; within 24 h after second injection,dramatic increase
